What is called IC50 is the concentration that gives 50% inhibition. Lower therefore signals inhibition by little substance.

The record followed here is patent publication US20230096028A1, “BICYCLIC HETEROCYCLYL COMPOUNDS AND USES THEREOF” (Revolution Medicines, Inc., priority 2019, published 2023).

Structures are written as SMILES.

One experiment has as its system NCI-H358 xenograft. Briefly: In vivo tumor cell growth, NSCLC NCI-H358 xenograft model. Also on record: species or system female balb/c athymic nude mice. Here is the method:
Objective: To evaluate the efficacy of the SOS1 inhibitor Compound A alone and in combination with a KRAS G12C inhibitor MRTX1257 following oral administration in the human non-small cell lung cancer (NSCLC) NCI-H358 xenograft model in nude mice.
Methods: The effect of a SOS1 inhibitor of the present invention (Compound A) on tumor cell growth in vivo was evaluated in the NSCLC NCI-H358 xenograft model using female balb/c athymic nude mice (6-8 weeks old). Mice were implanted with H358 tumor cells in 50% matrigel (5^e6 cells/mouse) subcutaneously in the flank. Once tumors reached an average size of ˜200 mm^3, mice were randomized to treatment groups and administration of test article or vehicle (2% HPMC, 0.1% tween in 50 mM sodium citrate buffer pH 4). Body weight and tumor volume (using digital calipers) were measured twice a week until study endpoints. Compounds were administered by oral gavage daily.

A further experiment deals with T1, SOS1 (Homo sapiens, UniProt Q07889).
T1 construct: SOS1 (Cytoskeleton Inc., Cat. CS-GE02); purchased Cytoskeleton Inc. CS-GE02
T1 sequence (Q07889 564-1049 limits assumed): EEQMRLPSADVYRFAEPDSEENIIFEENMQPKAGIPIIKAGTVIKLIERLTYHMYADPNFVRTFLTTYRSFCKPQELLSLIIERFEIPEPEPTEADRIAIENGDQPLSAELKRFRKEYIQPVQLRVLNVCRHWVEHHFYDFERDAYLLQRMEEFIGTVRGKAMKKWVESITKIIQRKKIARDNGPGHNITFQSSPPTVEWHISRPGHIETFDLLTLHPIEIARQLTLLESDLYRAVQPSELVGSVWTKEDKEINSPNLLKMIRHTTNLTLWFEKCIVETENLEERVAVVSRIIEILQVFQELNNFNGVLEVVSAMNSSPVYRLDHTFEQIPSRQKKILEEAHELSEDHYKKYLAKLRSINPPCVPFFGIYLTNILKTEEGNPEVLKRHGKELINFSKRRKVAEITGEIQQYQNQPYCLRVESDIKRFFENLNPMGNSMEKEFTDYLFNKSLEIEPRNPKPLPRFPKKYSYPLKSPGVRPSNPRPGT
Briefly: Bodipy-FL-GTP Association Assay (SOS1-mediated exchange of KRAS-4B:GDP to KRAS-4B:GTP). It counts as biochemical. As to conditions: SOS1-mediated BODIPY FL GTP exchange on KRAS-4B, 22° C. Here is the method:
A low IC50 value for a given compound is indicative of high potency of said compound in inhibiting the guanine nucleotide exchange factor (GEF) activity of SOS1 on KRAS-4B in this assay setting.
Reagents: BODIPY FL GTP (ThermoFisher Scientific, Cat. G12411); KRAS4-B (Cytoskeleton Inc., Cat. CSRS03); SOS1 (Cytoskeleton Inc., Cat. CS-GE02); 2×Assay Buffer: 40 mM Tris-HCl, pH 7.5; 100 mM NaCl; 20 mM MgCl2; 0.1 mg/mL BSA; 0.02% NP-40
Assay Procedure: Test compounds were dissolved in DMSO to create 20 mM master stocks. The stocks were diluted in a 3× dilution series in 100% DMSO to achieve 100× compound stocks. A 1 μl spot of each test compound stock was delivered to two adjacent wells of a 96-well assay plate prior to running the assay. Reaction Mix preparation: The following were mixed in order at room temperature to obtain the “Reaction Mix” (5.75 mL 2× Exchange Buffer; 3.22 mL MilliQ ddH2O; 3 μL 5 mM BODIPY FL GTP; 230 μL 50 μM KRAS-4B; 9.203 mL Total volume. Reaction initiation: 80 μL of Reaction Mix was pipetted into each well of a half-area black 96-well plate (Corning, Cat. 3686) containing either a 1 μL spot of DMSO or a 1 μL spot test compound at the concentrations listed above. 20 μL of 1 μM SOS1 was then added to each well to initiate the reaction. For the no GEF control wells this was replaced with 1× exchange buffer. Kinetic measurement: The reaction was monitored in a SpectraMax M2 Microplate Reader (Molecular Devices) under the following protocol: 5 second rapid circular mixing before first read; 61 readings, 30 seconds apart; Assay temperature: 22° C.; Excitation wavelength: 485 nm; Emission wavelength: 513 nm. Data Analysis: The Vmax values for the SOS1-mediated BODIPY FL GTP exchange curves in the presence of test compounds were normalized to the most dilute test sample columns or DMSO only control wells to give the % Activity for each concentration of test compound. Plots of % Activity vs. the Log 10 of the compound concentration were fit by non-linear regression to a 4-parameter logistic model.

Take `C=CC(=O)N1CCN(c2nc(OC[C@@H]3CCCN3C)nc3c2CCN(c2cccc4cccc(C)c24)C3)C[C@@H]1CC#N` [MRTX1257]: in the experiment with NCI-H358 xenograft (10 mg/kg, repeated daily dosing, single agent), the “tumor growth inhibition, TGI” value is 76%. Also, the tumor response entry in the experiment on NCI-H358 xenograft (50 mg/kg, H358 model) was “achieved regressions”. In turn, `Cc1nc2c(c(N[C@H](C)c3cc(N)cc(C(F)(F)F)c3)n1)CN(CC1CCOC1)CC2` (stereo partly drawn) [Example 12] yielded an IC50 on SOS1 of under 1000 nM.
